This passage reports IC50 results from ChEMBL document CHEMBL4184278, “Synthesis and cytotoxicity of novel imidazo[4,5-d]azepine compounds derived from marine natural product ceratamine A” (Bioorg Med Chem Lett, 2018).

One test has as its system HCT-116. In words: Cytotoxicity against human HCT116 cells assessed as growth inhibition after 72 hrs by MTT assay. The test is classed as functional, cell-based. Conditions: HCT-116, 72 h. In general terms: Formazan colour is commonly taken as a measure of viable cells.
Usually IC50 stands for the midpoint of a concentration-inhibition curve. Consider `COc1ccc(CN2CCc3ncn(COCc4ccccc4)c3/C(=C/c3ccccc3)C2=O)cc1`, for which the half-inhibitory concentration (IC50) was 31.1 µM.

As for `O=C1/C(=C\c2ccccc2)c2c(ncn2COCc2ccccc2)CCN1Cc1ccc2ccccc2c1`, the half-inhibitory concentration (IC50) came out at 19.4 µM.

As for `COc1cc(/C=C2\C(=O)N(Cc3ccccc3)CCc3ncn(COCc4ccccc4)c32)cc(OC)c1OC`, the 50% inhibitory concentration (IC50) turned out to be 8.9 µM.

Turning to `O=C1/C(=C\c2ccccc2)c2[nH]cnc2CCN1Cc1ccccc1`, the IC50 is above 100 µM.

As for `CC(C)(C)c1ccc(CN2CCc3ncn(COCc4ccccc4)c3/C(=C/c3ccccc3)C2=O)cc1`, the IC50 was 8.46 µM.

Take `O=C1/C(=C\c2ccccc2)c2c(ncn2COCc2ccccc2)CCN1Cc1ccc(-c2ccccc2)cc1`: the IC50 came to 14 µM.

Consider `Cc1ccc(CN2CCc3ncn(COCc4ccccc4)c3/C(=C/c3ccccc3)C2=O)cc1`, for which the IC50 turned out to be 7.94 µM.

On to `Cc1cccc(CN2CCc3ncn(COCc4ccccc4)c3/C(=C/c3ccccc3)C2=O)c1`, for which the half-inhibitory concentration (IC50) stood at 3.8 µM.

Take `O=C1/C(=C\c2ccc(C(F)(F)F)cc2)c2c(ncn2COCc2ccccc2)CCN1Cc1ccccc1`: the IC50 is 36 µM.

On to `Cc1cc(C)cc(CN2CCc3ncn(COCc4ccccc4)c3/C(=C/c3ccccc3)C2=O)c1`, for which the half-maximal inhibitory concentration (IC50) worked out at 6.23 µM.

Turning to `O=C1/C(=C\c2ccccc2)c2c(ncn2COCc2ccccc2)CCN1Cc1ccc(Cl)cc1`, the IC50 is 10.5 µM.

Consider `O=C1/C(=C\c2ccccc2)c2c(ncn2COCc2ccccc2)CCN1Cc1ccccc1`, for which the IC50 worked out at 20 µM.

Consider `CNc1nc2ccn(C)c(=O)c(Cc3cc(Br)c(OC)c(Br)c3)c-2n1` [CERATAMINE A], for which the IC50 turned out to be 12.4 µM.

For `O=C1/C(=C\c2ccncc2)c2c(ncn2COCc2ccccc2)CCN1Cc1ccccc1`, the half-maximal inhibitory concentration (IC50) is 67.1 µM.

On to `Cc1ccccc1CN1CCc2ncn(COCc3ccccc3)c2/C(=C/c2ccccc2)C1=O`, for which the IC50 amounted to 24.7 µM.

Consider `O=C1/C(=C\c2ccccc2)c2c(ncn2COCc2ccccc2)CCN1Cc1ccc(F)cc1`, for which the IC50 is 11.2 µM.

In a further test the test system is HepG2. In words: Cytotoxicity against human HepG2 cells assessed as growth inhibition after 72 hrs by MTT assay. Conditions: HepG2, 72 h. The test is classed as functional, cell-based.
In the case of `COc1ccc(CN2CCc3ncn(COCc4ccccc4)c3/C(=C/c3ccccc3)C2=O)cc1`, the half-inhibitory concentration (IC50) was found to be 44.4 µM.

On to `O=C1/C(=C\c2ccccc2)c2c(ncn2COCc2ccccc2)CCN1Cc1ccc2ccccc2c1`, for which the IC50 turned out to be 23.7 µM.

As for `COc1cc(/C=C2\C(=O)N(Cc3ccccc3)CCc3ncn(COCc4ccccc4)c32)cc(OC)c1OC`, the IC50 was found to be 10 µM.

Consider `O=C1/C(=C\c2ccccc2)c2[nH]cnc2CCN1Cc1ccccc1`, for which the concentration for half-maximal inhibition (IC50) is above 100 µM.

In the case of `CC(C)(C)c1ccc(CN2CCc3ncn(COCc4ccccc4)c3/C(=C/c3ccccc3)C2=O)cc1`, the IC50 worked out at 18 µM.

For the molecule `O=C1/C(=C\c2ccccc2)c2c(ncn2COCc2ccccc2)CCN1Cc1ccc(-c2ccccc2)cc1`, the IC50 was determined as 72.5 µM.

`Cc1ccc(CN2CCc3ncn(COCc4ccccc4)c3/C(=C/c3ccccc3)C2=O)cc1`: the 50% inhibitory concentration (IC50) was 44.6 µM.

As for `Cc1cccc(CN2CCc3ncn(COCc4ccccc4)c3/C(=C/c3ccccc3)C2=O)c1`, the IC50 is 34.3 µM.

Consider `O=C1/C(=C\c2ccc(C(F)(F)F)cc2)c2c(ncn2COCc2ccccc2)CCN1Cc1ccccc1`, for which the IC50 came to 51.4 µM.

As for `Cc1cc(C)cc(CN2CCc3ncn(COCc4ccccc4)c3/C(=C/c3ccccc3)C2=O)c1`, the 50% inhibitory concentration (IC50) is 40.9 µM.

Regarding `O=C1/C(=C\c2ccccc2)c2c(ncn2COCc2ccccc2)CCN1Cc1ccc(Cl)cc1`, the IC50 was 47.9 µM.

Consider `O=C1/C(=C\c2ccccc2)c2c(ncn2COCc2ccccc2)CCN1Cc1ccccc1`, for which the IC50 was 13.9 µM.

`CNc1nc2ccn(C)c(=O)c(Cc3cc(Br)c(OC)c(Br)c3)c-2n1` [CERATAMINE A]: the half-maximal inhibitory concentration (IC50) was 7.8 µM.

As for `O=C1/C(=C\c2ccncc2)c2c(ncn2COCc2ccccc2)CCN1Cc1ccccc1`, the IC50 is above 100 µM.

Regarding `Cc1ccccc1CN1CCc2ncn(COCc3ccccc3)c2/C(=C/c2ccccc2)C1=O`, the IC50 worked out at 53.3 µM.

Consider `O=C1/C(=C\c2ccccc2)c2c(ncn2COCc2ccccc2)CCN1Cc1ccc(F)cc1`, for which the half-maximal inhibitory concentration (IC50) is 39.4 µM.

The test system of the next test is BGC-823. In words: Cytotoxicity against human BGC823 cells assessed as growth inhibition after 72 hrs by MTT assay. The test is classed as functional, cell-based. Conditions: BGC-823, 72 h.
Consider `COc1ccc(CN2CCc3ncn(COCc4ccccc4)c3/C(=C/c3ccccc3)C2=O)cc1`, for which the IC50 was 71.6 µM.

For `O=C1/C(=C\c2ccccc2)c2c(ncn2COCc2ccccc2)CCN1Cc1ccc2ccccc2c1`, the IC50 came to 93.3 µM.

Take `COc1cc(/C=C2\C(=O)N(Cc3ccccc3)CCc3ncn(COCc4ccccc4)c32)cc(OC)c1OC`: the IC50 was 12.9 µM.

As to `O=C1/C(=C\c2ccccc2)c2[nH]cnc2CCN1Cc1ccccc1`, the IC50 is above 100 µM.

Consider `CC(C)(C)c1ccc(CN2CCc3ncn(COCc4ccccc4)c3/C(=C/c3ccccc3)C2=O)cc1`, for which the IC50 was 27.8 µM.

Take `O=C1/C(=C\c2ccccc2)c2c(ncn2COCc2ccccc2)CCN1Cc1ccc(-c2ccccc2)cc1`: the IC50 worked out at 81 µM.

Turning to `Cc1ccc(CN2CCc3ncn(COCc4ccccc4)c3/C(=C/c3ccccc3)C2=O)cc1`, the IC50 is 39.1 µM.

For the molecule `Cc1cccc(CN2CCc3ncn(COCc4ccccc4)c3/C(=C/c3ccccc3)C2=O)c1`, the 50% inhibitory concentration (IC50) worked out at 14.6 µM.

Consider `O=C1/C(=C\c2ccc(C(F)(F)F)cc2)c2c(ncn2COCc2ccccc2)CCN1Cc1ccccc1`, for which the IC50 is 42.6 µM.

For `Cc1cc(C)cc(CN2CCc3ncn(COCc4ccccc4)c3/C(=C/c3ccccc3)C2=O)c1`, the IC50 turned out to be 52.6 µM.

For the molecule `O=C1/C(=C\c2ccccc2)c2c(ncn2COCc2ccccc2)CCN1Cc1ccc(Cl)cc1`, the half-maximal inhibitory concentration (IC50) came out at 75.7 µM.

For the molecule `O=C1/C(=C\c2ccccc2)c2c(ncn2COCc2ccccc2)CCN1Cc1ccccc1`, the IC50 was 20.4 µM.

Turning to `CNc1nc2ccn(C)c(=O)c(Cc3cc(Br)c(OC)c(Br)c3)c-2n1` [CERATAMINE A], the IC50 was determined as 20 µM.

On to `O=C1/C(=C\c2ccncc2)c2c(ncn2COCc2ccccc2)CCN1Cc1ccccc1`, for which the 50% inhibitory concentration (IC50) is above 100 µM.

`Cc1ccccc1CN1CCc2ncn(COCc3ccccc3)c2/C(=C/c2ccccc2)C1=O`: the half-maximal inhibitory concentration (IC50) was determined as 31.3 µM.

Turning to `O=C1/C(=C\c2ccccc2)c2c(ncn2COCc2ccccc2)CCN1Cc1ccc(F)cc1`, the IC50 was determined as 72.9 µM.

The test system of the next test is A549. In words: Cytotoxicity against human A549 cells assessed as growth inhibition after 72 hrs by MTT assay. The test is classed as functional, cell-based. Conditions: A549, 72 h.
Regarding `COc1ccc(CN2CCc3ncn(COCc4ccccc4)c3/C(=C/c3ccccc3)C2=O)cc1`, the IC50 was 46.8 µM.

For the molecule `O=C1/C(=C\c2ccccc2)c2c(ncn2COCc2ccccc2)CCN1Cc1ccc2ccccc2c1`, the IC50 is 26.4 µM.

In the case of `COc1cc(/C=C2\C(=O)N(Cc3ccccc3)CCc3ncn(COCc4ccccc4)c32)cc(OC)c1OC`, the 50% inhibitory concentration (IC50) is 8.56 µM.

With `O=C1/C(=C\c2ccccc2)c2[nH]cnc2CCN1Cc1ccccc1`, the IC50 came to 51.1 µM.

On to `CC(C)(C)c1ccc(CN2CCc3ncn(COCc4ccccc4)c3/C(=C/c3ccccc3)C2=O)cc1`, for which the concentration for half-maximal inhibition (IC50) is 20.6 µM.

For `O=C1/C(=C\c2ccccc2)c2c(ncn2COCc2ccccc2)CCN1Cc1ccc(-c2ccccc2)cc1`, the IC50 was found to be 18.3 µM.

For `Cc1ccc(CN2CCc3ncn(COCc4ccccc4)c3/C(=C/c3ccccc3)C2=O)cc1`, the half-maximal inhibitory concentration (IC50) was 11.4 µM.

In the case of `Cc1cccc(CN2CCc3ncn(COCc4ccccc4)c3/C(=C/c3ccccc3)C2=O)c1`, the IC50 worked out at 16.1 µM.

On to `O=C1/C(=C\c2ccc(C(F)(F)F)cc2)c2c(ncn2COCc2ccccc2)CCN1Cc1ccccc1`, for which the concentration for half-maximal inhibition (IC50) worked out at 52.5 µM.

For `Cc1cc(C)cc(CN2CCc3ncn(COCc4ccccc4)c3/C(=C/c3ccccc3)C2=O)c1`, the concentration for half-maximal inhibition (IC50) came out at 22.5 µM.

On to `O=C1/C(=C\c2ccccc2)c2c(ncn2COCc2ccccc2)CCN1Cc1ccc(Cl)cc1`, for which the IC50 is 11.8 µM.

As for `O=C1/C(=C\c2ccccc2)c2c(ncn2COCc2ccccc2)CCN1Cc1ccccc1`, the 50% inhibitory concentration (IC50) amounted to 9.9 µM.

For the molecule `CNc1nc2ccn(C)c(=O)c(Cc3cc(Br)c(OC)c(Br)c3)c-2n1` [CERATAMINE A], the IC50 is 26.8 µM.

For `O=C1/C(=C\c2ccncc2)c2c(ncn2COCc2ccccc2)CCN1Cc1ccccc1`, the IC50 was 36 µM.

As to `Cc1ccccc1CN1CCc2ncn(COCc3ccccc3)c2/C(=C/c2ccccc2)C1=O`, the half-inhibitory concentration (IC50) was 25.6 µM.

Consider `O=C1/C(=C\c2ccccc2)c2c(ncn2COCc2ccccc2)CCN1Cc1ccc(F)cc1`, for which the IC50 amounted to 19.6 µM.

The subject of the next test is A2780. In words: Cytotoxicity against human A2780 cells assessed as growth inhibition after 72 hrs by MTT assay. Type of test: functional, cell-based. Conditions: A2780, 72 h.
On to `COc1ccc(CN2CCc3ncn(COCc4ccccc4)c3/C(=C/c3ccccc3)C2=O)cc1`, for which the IC50 was 43.1 µM.

For `O=C1/C(=C\c2ccccc2)c2c(ncn2COCc2ccccc2)CCN1Cc1ccc2ccccc2c1`, the IC50 was 72.8 µM.

Take `COc1cc(/C=C2\C(=O)N(Cc3ccccc3)CCc3ncn(COCc4ccccc4)c32)cc(OC)c1OC`: the IC50 turned out to be 8.97 µM.

For the molecule `O=C1/C(=C\c2ccccc2)c2[nH]cnc2CCN1Cc1ccccc1`, the IC50 is above 100 µM.

`CC(C)(C)c1ccc(CN2CCc3ncn(COCc4ccccc4)c3/C(=C/c3ccccc3)C2=O)cc1`: the IC50 is 23.9 µM.

For `O=C1/C(=C\c2ccccc2)c2c(ncn2COCc2ccccc2)CCN1Cc1ccc(-c2ccccc2)cc1`, the 50% inhibitory concentration (IC50) came to 48.3 µM.

Turning to `Cc1ccc(CN2CCc3ncn(COCc4ccccc4)c3/C(=C/c3ccccc3)C2=O)cc1`, the half-inhibitory concentration (IC50) came out at 21.2 µM.

Take `Cc1cccc(CN2CCc3ncn(COCc4ccccc4)c3/C(=C/c3ccccc3)C2=O)c1`: the half-maximal inhibitory concentration (IC50) worked out at 26.3 µM.

With `O=C1/C(=C\c2ccc(C(F)(F)F)cc2)c2c(ncn2COCc2ccccc2)CCN1Cc1ccccc1`, the IC50 stood at 28.2 µM.

On to `Cc1cc(C)cc(CN2CCc3ncn(COCc4ccccc4)c3/C(=C/c3ccccc3)C2=O)c1`, for which the IC50 was determined as 31.3 µM.

Regarding `O=C1/C(=C\c2ccccc2)c2c(ncn2COCc2ccccc2)CCN1Cc1ccc(Cl)cc1`, the 50% inhibitory concentration (IC50) was 22.2 µM.

Consider `O=C1/C(=C\c2ccccc2)c2c(ncn2COCc2ccccc2)CCN1Cc1ccccc1`, for which the IC50 is 20.4 µM.

In the case of `CNc1nc2ccn(C)c(=O)c(Cc3cc(Br)c(OC)c(Br)c3)c-2n1` [CERATAMINE A], the IC50 came to 11.2 µM.

Take `O=C1/C(=C\c2ccncc2)c2c(ncn2COCc2ccccc2)CCN1Cc1ccccc1`: the IC50 was above 100 µM.

Regarding `Cc1ccccc1CN1CCc2ncn(COCc3ccccc3)c2/C(=C/c2ccccc2)C1=O`, the IC50 stood at 25.2 µM.

Regarding `O=C1/C(=C\c2ccccc2)c2c(ncn2COCc2ccccc2)CCN1Cc1ccc(F)cc1`, the IC50 is 24.8 µM.
